Columns and labels:
Experiment in all cases: KINOMEscan competition binding
Conditions in all cases: compound 10.0 µM
ADCK3 (human) = ADCK3 (human) (UniProt Q8NI60)
AURKA (human) = AURKA (human) (UniProt O14965)
BRSK1 (human) = BRSK1 (human) (UniProt Q8TDC3)
CAMK2B (human) = CAMK2B (human) (UniProt Q13554)
CDC2L2 (human) = CDC2L2 (human) (UniProt Q9UQ88)
CDK16 (human) = CDK16 (human) (UniProt Q00536)
CDK8 (human) = CDK8 (human) (UniProt P49336)
CLK2 (human) = CLK2 (human) (UniProt P49760)
CSNK1A1 (human) = CSNK1A1 (human) (UniProt P48729)
DDR2 (human) = DDR2 (human) (UniProt Q16832)
FER (human) = FER (human) (UniProt P16591)
FGFR3 (human) = FGFR3 (human) (UniProt P22607)
FGFR4 (human) = FGFR4 (human) (UniProt P22455)
[1] = system: FLT3 (human), P36888 [R834Q]
FLT4 (human) = FLT4 (human) (UniProt P35916)
LATS2 (human) = LATS2 (human) (UniProt Q9NRM7)
MAP2K5 (human) = MAP2K5 (human) (UniProt Q13163)
MAP2K7 (human) = MAP2K7 (human) (UniProt O14733)
MAPK11 (human) = MAPK11 (human) (UniProt Q15759)
MAPK7 (human) = MAPK7 (human) (UniProt Q13164)
Chain of MAPK7 (human) (Q13164 whole entry, looked up): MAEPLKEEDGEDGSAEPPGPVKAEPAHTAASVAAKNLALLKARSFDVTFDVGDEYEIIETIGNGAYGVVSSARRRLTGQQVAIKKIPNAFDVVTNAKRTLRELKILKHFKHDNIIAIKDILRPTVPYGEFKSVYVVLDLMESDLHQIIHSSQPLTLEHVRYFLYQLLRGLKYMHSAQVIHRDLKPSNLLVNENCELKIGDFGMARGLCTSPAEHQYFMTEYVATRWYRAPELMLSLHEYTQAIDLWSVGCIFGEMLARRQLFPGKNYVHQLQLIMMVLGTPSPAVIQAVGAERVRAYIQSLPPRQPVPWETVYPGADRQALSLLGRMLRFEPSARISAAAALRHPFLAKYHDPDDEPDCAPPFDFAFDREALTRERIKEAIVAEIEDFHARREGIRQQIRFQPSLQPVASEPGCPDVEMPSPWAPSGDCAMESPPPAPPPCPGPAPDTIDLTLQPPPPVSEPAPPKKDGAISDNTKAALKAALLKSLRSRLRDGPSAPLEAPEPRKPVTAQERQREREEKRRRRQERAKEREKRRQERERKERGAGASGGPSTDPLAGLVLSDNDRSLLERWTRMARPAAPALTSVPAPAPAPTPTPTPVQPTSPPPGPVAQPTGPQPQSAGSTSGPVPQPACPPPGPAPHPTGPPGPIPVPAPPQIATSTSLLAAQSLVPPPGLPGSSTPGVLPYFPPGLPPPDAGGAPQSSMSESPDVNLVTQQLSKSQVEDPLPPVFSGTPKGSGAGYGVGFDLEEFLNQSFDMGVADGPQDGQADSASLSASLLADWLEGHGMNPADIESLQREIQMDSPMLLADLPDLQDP

MUSK (human) = MUSK (human) (UniProt O15146)
Chain of MUSK (human) (O15146 whole entry, looked up): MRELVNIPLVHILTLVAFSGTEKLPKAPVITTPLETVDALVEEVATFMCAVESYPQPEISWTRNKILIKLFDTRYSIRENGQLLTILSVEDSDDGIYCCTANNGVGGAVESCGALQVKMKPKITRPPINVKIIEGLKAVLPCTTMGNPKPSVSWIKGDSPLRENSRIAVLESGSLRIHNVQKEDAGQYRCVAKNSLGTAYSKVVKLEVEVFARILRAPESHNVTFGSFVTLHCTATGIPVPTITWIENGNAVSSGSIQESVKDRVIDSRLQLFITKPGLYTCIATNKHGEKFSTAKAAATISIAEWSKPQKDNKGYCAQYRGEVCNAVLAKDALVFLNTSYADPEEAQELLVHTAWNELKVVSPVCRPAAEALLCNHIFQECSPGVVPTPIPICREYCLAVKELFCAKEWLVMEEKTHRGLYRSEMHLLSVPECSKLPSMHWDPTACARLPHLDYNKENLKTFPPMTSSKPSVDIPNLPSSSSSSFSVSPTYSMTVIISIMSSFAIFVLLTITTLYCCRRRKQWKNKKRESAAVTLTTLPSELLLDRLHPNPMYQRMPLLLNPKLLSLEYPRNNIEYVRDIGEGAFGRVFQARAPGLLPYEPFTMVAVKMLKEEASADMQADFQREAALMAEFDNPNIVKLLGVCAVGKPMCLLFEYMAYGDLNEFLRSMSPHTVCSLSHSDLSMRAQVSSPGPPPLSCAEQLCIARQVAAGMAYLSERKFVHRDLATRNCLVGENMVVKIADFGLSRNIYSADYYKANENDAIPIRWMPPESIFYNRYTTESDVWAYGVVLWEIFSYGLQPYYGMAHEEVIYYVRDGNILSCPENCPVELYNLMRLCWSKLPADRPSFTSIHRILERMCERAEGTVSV

MYLK3 (human) = MYLK3 (human) (UniProt Q32MK0)
MYO3A (human) = MYO3A (human) (UniProt Q8NEV4)
Chain of MYO3A (human) (Q8NEV4 whole entry, looked up): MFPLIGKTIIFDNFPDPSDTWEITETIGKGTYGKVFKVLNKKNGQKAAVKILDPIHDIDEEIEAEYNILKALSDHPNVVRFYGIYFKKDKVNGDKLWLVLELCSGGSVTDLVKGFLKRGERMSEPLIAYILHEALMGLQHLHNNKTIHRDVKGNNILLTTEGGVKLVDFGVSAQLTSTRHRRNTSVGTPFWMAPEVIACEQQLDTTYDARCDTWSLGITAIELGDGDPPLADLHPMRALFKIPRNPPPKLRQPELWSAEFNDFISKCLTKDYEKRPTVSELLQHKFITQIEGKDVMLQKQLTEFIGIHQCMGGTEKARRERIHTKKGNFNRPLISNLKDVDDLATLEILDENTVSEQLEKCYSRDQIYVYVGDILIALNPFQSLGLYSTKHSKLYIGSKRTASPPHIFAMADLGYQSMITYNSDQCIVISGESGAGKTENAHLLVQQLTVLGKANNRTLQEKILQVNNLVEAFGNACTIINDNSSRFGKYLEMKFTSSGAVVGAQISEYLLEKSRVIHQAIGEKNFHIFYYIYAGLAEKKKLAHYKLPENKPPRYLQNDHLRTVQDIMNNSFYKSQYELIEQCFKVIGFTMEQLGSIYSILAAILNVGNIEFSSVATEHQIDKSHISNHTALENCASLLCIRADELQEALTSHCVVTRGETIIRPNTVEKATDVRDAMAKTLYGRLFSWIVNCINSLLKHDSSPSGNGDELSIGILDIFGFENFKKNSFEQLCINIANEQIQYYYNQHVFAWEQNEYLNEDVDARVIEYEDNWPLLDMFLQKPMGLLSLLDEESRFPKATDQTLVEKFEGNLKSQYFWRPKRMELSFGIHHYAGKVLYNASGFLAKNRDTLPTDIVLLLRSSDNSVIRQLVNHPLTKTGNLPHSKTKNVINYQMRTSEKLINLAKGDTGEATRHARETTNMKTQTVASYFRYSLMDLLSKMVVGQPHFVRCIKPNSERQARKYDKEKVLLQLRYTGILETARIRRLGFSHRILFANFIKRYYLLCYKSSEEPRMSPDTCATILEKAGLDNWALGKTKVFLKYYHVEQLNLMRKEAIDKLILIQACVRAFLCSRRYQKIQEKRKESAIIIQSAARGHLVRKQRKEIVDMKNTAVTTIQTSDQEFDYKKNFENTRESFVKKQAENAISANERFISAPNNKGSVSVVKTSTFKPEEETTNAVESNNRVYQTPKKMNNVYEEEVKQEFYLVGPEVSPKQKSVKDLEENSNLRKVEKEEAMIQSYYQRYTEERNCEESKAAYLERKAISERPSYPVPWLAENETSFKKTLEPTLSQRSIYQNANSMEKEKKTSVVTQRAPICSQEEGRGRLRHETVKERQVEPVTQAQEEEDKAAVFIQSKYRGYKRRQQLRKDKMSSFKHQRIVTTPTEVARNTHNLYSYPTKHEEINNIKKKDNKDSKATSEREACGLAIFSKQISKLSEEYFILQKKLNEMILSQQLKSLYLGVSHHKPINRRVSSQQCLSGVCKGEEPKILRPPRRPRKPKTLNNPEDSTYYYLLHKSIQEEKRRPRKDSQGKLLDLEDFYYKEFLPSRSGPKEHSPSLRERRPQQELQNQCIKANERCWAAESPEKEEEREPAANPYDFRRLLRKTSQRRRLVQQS

MYO3B (human) = MYO3B (human) (UniProt Q8WXR4)
NTRK1 (human) = NTRK1 (human) (UniProt P04629)
PAK4 (human) = PAK4 (human) (UniProt O96013)
PLK1 (human) = PLK1 (human) (UniProt P53350)
PLK2 (human) = PLK2 (human) (UniProt Q9NYY3)
PRKACA (human) = PRKACA (human) (UniProt P17612)
PRKACB (human) = PRKACB (human) (UniProt P22694)
PRKCH (human) = PRKCH (human) (UniProt P24723)
RIPK4 (human) = RIPK4 (human) (UniProt P57078)
SRC (human) = SRC (human) (UniProt P12931)
STK24 (human) = STK24 (human) (UniProt Q9Y6E0)
STK3 (human) = STK3 (human) (UniProt Q13188)
TEC (human) = TEC (human) (UniProt P42680)
TGFBR2 (human) = TGFBR2 (human) (UniProt P37173)
TLK2 (human) = TLK2 (human) (UniProt Q86UE8)
Chain of TLK2 (human) (Q86UE8 whole entry, looked up): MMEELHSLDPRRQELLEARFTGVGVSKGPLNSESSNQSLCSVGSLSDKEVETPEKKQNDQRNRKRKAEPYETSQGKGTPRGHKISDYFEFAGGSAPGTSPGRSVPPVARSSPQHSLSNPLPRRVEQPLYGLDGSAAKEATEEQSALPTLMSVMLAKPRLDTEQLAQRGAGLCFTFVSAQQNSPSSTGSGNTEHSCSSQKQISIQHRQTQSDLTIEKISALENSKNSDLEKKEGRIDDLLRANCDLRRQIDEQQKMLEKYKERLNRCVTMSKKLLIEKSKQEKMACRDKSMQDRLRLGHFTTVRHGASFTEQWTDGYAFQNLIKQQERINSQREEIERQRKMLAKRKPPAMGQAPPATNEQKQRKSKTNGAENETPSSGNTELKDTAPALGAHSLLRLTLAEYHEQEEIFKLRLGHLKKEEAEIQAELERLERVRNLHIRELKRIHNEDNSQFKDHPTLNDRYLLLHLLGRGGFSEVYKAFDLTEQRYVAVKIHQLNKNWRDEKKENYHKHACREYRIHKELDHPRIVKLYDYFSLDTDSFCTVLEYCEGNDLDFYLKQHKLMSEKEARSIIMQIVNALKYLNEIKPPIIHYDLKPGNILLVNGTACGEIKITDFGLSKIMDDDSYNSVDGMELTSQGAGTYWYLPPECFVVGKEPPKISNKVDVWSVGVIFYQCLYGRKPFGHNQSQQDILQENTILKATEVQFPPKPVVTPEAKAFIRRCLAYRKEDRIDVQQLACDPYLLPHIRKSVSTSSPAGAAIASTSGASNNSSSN

TNIK (human) = TNIK (human) (UniProt Q9UKE5)
YES1 (human) = YES1 (human) (UniProt P07947)
YSK4 (human) = YSK4 (human) (UniProt Q56UN5)

Chain of CDC2L2 (human) (Q9UQ88 whole entry, looked up): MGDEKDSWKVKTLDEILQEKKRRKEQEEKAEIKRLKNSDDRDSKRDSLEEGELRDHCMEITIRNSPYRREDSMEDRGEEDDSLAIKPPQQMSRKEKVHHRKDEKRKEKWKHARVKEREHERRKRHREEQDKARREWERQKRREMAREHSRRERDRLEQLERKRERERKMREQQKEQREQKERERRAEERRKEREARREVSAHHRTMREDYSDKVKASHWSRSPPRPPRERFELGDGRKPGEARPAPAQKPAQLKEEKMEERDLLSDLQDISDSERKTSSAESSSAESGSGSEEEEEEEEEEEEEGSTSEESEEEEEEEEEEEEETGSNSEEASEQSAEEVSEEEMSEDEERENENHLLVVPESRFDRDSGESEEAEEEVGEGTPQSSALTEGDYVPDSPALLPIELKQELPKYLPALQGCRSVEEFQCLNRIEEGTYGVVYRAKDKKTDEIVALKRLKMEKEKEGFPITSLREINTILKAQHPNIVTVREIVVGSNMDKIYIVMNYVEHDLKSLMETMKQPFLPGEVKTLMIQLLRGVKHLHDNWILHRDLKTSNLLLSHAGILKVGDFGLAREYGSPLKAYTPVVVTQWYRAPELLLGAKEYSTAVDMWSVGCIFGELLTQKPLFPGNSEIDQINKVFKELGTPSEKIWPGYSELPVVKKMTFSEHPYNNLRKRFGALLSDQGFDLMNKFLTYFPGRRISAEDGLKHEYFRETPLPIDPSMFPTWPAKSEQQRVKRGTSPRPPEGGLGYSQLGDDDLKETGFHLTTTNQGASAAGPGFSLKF

SMILES: O=C1NC(=O)/C(=C/c2ccc3nccc(-c4ccncc4)c3c2)S1
- kinase still bound, per cent of control (ADCK3 (human)): 93%
- kinase still bound, per cent of control (AURKA (human)): 69%
- kinase still bound, per cent of control (BRSK1 (human)): 73%
- kinase still bound, per cent of control (CAMK2B (human)): 9.6%
- kinase still bound, per cent of control (CDC2L2 (human)): 85%
- kinase still bound, per cent of control (CDK16 (human)): 71%
- kinase still bound, per cent of control (CDK8 (human)): 7.3%
- kinase still bound, per cent of control (CLK2 (human)): 0.15%
- kinase still bound, per cent of control (CSNK1A1 (human)): 24%
- kinase still bound, per cent of control (DDR2 (human)): 63%
- kinase still bound, per cent of control (FER (human)): 50%
- kinase still bound, per cent of control (FGFR3 (human)): 100%
- kinase still bound, per cent of control (FGFR4 (human)): 59%
- kinase still bound, per cent of control [1]: 90%
- kinase still bound, per cent of control (FLT4 (human)): 98%
- kinase still bound, per cent of control (LATS2 (human)): 100%
- kinase still bound, per cent of control (MAP2K5 (human)): 46%
- kinase still bound, per cent of control (MAP2K7 (human)): 38%
- kinase still bound, per cent of control (MAPK11 (human)): 86%
- kinase still bound, per cent of control (MAPK7 (human)): 59%
- kinase still bound, per cent of control (MUSK (human)): 92%
- kinase still bound, per cent of control (MYLK3 (human)): 6.2%
- kinase still bound, per cent of control (MYO3A (human)): 85%
- kinase still bound, per cent of control (MYO3B (human)): 97%
- kinase still bound, per cent of control (NTRK1 (human)): 78%
- kinase still bound, per cent of control (PAK4 (human)): 75%
- kinase still bound, per cent of control (PLK1 (human)): 26%
- kinase still bound, per cent of control (PLK2 (human)): 29%
- kinase still bound, per cent of control (PRKACA (human)): 35%
- kinase still bound, per cent of control (PRKACB (human)): 31%
- kinase still bound, per cent of control (PRKCH (human)): 88%
- kinase still bound, per cent of control (RIPK4 (human)): 56%
- kinase still bound, per cent of control (SRC (human)): 69%
- kinase still bound, per cent of control (STK24 (human)): 87%
- kinase still bound, per cent of control (STK3 (human)): 54%
- kinase still bound, per cent of control (TEC (human)): 73%
- kinase still bound, per cent of control (TGFBR2 (human)): 73%
- kinase still bound, per cent of control (TLK2 (human)): 87%
- kinase still bound, per cent of control (TNIK (human)): 36%
- kinase still bound, per cent of control (YES1 (human)): 84%
- kinase still bound, per cent of control (YSK4 (human)): 0.05%
